Calls of active or inactive are those of the source.
Assays:
[1] = molecular target: T1, Short transient receptor potential channel 4 (Mus musculus, UniProt Q9QUQ5); test: mouse TRPC4 channel inhibitors, dose response, cell-based, HEK293 TRPC4/mu-opioid, Fluo-4 calcium (AID 434942); assay type: functional;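 also: potency of inhibitors blocking the TRPC4 calcium response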
T1 sequence (Q9QUQ5 whole entry): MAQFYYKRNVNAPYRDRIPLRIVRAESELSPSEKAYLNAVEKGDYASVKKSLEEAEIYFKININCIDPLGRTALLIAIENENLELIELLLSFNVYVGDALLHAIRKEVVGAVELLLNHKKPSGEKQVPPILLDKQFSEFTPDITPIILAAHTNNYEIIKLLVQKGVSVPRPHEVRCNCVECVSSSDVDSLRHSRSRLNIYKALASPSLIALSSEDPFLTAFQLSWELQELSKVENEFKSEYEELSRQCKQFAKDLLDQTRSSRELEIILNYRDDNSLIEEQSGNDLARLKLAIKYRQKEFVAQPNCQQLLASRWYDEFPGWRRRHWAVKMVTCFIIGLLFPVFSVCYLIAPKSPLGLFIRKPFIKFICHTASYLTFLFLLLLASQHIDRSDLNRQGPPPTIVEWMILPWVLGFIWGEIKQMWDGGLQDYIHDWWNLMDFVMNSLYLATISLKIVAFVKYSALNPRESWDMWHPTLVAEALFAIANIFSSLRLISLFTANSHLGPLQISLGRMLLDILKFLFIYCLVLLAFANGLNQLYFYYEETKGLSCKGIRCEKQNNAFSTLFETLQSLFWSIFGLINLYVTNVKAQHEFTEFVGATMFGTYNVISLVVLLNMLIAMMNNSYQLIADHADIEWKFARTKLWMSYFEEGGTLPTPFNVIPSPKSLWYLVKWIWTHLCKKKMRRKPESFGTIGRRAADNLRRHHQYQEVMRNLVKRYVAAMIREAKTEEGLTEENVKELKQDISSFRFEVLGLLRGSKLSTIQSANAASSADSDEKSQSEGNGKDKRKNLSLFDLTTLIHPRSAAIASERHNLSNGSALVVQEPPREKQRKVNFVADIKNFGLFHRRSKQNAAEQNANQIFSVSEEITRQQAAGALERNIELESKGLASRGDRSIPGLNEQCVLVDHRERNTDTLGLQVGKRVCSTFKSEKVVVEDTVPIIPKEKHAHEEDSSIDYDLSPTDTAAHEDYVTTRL

[2] = cytotoxicity in HEK-293T cells, dose response, cytotoxicity control for TCR NF-kB inhibitor project, luminescence, T-cell screen hits (AID 489026); assay type: functional, cell-based;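 also: cells exposed to compound about 14 hours before the viability readout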
[3] = molecular target: T2, DNA repair and recombination protein RAD54-like (Homo sapiens, UniProt Q92698); test: inhibitors of human RAD54 branch migration, confirmation, biochemical, fluorescence, cherry-picked samples, dose series (AID 651657); assay type: functional
T2 sequence (Q92698 whole entry): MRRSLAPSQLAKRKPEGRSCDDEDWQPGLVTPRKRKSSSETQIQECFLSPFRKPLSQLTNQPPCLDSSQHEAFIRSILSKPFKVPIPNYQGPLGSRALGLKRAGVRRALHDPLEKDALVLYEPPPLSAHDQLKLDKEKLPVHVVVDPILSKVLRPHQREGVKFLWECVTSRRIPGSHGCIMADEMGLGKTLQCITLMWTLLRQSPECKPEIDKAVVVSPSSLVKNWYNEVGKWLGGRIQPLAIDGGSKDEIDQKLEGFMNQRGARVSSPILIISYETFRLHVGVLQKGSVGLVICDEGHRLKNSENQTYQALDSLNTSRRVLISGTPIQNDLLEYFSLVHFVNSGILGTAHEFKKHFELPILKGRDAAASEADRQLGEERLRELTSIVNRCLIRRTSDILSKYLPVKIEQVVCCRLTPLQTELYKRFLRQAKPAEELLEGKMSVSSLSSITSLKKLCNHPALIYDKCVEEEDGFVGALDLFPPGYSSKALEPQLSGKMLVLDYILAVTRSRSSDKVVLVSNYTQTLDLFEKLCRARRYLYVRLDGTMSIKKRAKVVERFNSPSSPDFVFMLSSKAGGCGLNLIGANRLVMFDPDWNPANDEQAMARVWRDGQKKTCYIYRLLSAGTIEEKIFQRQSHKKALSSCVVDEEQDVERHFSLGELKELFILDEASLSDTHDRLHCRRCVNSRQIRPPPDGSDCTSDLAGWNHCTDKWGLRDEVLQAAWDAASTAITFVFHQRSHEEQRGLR

INS1 = test: beta cell apoptosis inhibitors, cytokine rescue, dose response, luminescence, retest (AID 449756); assay type: functional, cell-based; settings: Rattus norvegicus, INS1;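 also: cell death triggered by IL-1 beta plus TNF-alpha plus IFN-gamma mixture; protective hits raise ATP signal compared with cytokine alone wells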
[4] = HepG2 cell cytotoxicity, dose response, cytotoxicity control for Shn3 inhibitor project, CellTiter-Glo, cherry-picked (AID 624134); assay type: functional, cell-based
[5] = control 3'UTR Renilla luciferase suppression, dose response, counter-screen for Shn3 inhibitor project, cell-based, Clone20-Shn3RL, cherry-picked (AID 624133); assay type: functional
[6] = Shn3 3'UTR reporter inhibitors, dose response, cell-based, Clone20 osteoblasts, firefly luciferase, cherry-picked (AID 624132); assay type: functional;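 also: firefly luciferase luminescence from reporter carrying the Shn3 3'UTR in osteoblasts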
[7] = molecular target: T3, Microphthalmia-associated transcription factor (Homo sapiens, UniProt O75030); test: TRPM1 promoter luciferase signal decrease, dose response, MITF inhibitor project, cell-based, SK-MEL-5, cherry-picked, set 3 (AID 493073); assay type: functional
T3 sequence (O75030 whole entry): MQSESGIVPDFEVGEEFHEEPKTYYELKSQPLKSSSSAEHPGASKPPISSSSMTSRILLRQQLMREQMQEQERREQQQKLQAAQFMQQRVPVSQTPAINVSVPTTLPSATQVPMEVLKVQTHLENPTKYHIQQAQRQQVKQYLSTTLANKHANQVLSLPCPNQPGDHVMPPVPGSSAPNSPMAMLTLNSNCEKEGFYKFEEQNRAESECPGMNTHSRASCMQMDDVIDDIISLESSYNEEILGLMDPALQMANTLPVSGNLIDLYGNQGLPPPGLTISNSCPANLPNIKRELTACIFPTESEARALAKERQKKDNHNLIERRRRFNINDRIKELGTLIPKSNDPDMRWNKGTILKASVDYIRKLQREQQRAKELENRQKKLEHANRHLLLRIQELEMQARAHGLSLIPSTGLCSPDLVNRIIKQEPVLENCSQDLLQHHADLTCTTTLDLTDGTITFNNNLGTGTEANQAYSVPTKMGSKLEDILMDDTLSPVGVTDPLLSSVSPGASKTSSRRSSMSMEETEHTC

[8] = HEK293T cytotoxicity, dose response, cytotoxicity control for miR-122 modulator project, cell-based, inhibitor set, cherry-pick, set 2 (AID 720697); assay type: functional
[9] = molecular target: T4, DNA repair protein RAD52 homolog (Homo sapiens, UniProt P43351); assay type: functional, biochemical
T4 sequence (P43351 whole entry): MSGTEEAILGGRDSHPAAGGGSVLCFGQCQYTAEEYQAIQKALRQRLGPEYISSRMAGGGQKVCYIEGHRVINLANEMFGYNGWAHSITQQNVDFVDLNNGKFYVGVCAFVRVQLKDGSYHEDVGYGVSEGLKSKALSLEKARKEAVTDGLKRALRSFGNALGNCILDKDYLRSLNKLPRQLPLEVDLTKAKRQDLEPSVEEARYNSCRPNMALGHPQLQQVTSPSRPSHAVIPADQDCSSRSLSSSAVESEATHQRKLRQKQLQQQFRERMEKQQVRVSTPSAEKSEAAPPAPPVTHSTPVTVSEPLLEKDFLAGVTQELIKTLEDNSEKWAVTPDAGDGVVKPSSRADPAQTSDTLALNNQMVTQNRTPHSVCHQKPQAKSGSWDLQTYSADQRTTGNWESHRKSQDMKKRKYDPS

[10] = intracellular Trypanosoma cruzi inhibitors in host cells – cell-based, plate reader, cherry-pick samples, set 3, dose response (AID 651818); assay type: functional;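 also: compounds incubated with infected cells for about four days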
BJ [11] = test: cells; assay type: functional, cell-based; settings: Homo sapiens
Nonstructural protein 1 = Nonstructural protein 1 (Influenza A virus, UniProt Q194T2); assay type: functional, Influenza A virus (A/California/07/2009(H1N1))
Sequence of Nonstructural protein 1 (Q194T2 whole entry): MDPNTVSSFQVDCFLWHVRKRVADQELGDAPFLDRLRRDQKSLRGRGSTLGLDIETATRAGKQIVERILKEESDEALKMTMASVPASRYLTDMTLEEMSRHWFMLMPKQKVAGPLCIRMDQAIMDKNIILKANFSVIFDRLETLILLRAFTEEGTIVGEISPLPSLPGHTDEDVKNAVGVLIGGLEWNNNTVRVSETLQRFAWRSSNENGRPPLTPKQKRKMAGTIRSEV

[12] = inhibitors of firefly luciferase expression or activity, dose response, H4 neuroglioma cells, luminescence (AID 1990); assay type: functional, cell-based
[13] = cytotoxicity toward DRD oncogenic fibroblasts, dose response, cell-based, non-viral oncogenic, luminescence (AID 1934); assay type: functional; settings: Homo sapiens
[14] = inhibitors of intracellular T. cruzi replication, confirmation, NIH3T3 host cells, beta-gal luminescence (AID 2044); assay type: functional, cell-based;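 also: intracellular parasites grown in NIH/3T3 mouse fibroblasts as host cells; luminescent beta-galactosidase reporter signal from transgenic T. cruzi replicating inside host cells; inhibitors lower the luminescence signal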
[15] = Luminescence Cell-Based Dose Response HTS to Identify Inhibitors of 5'UTR Stem-Loop Driven Prion Protein mRNA Translation in H4 Neuroglioblastoma Cells. [Related pubchem assays: 1827 (Project Summary), 1813 (Primary HTS)]; assay type: functional
BJ [16] = test: cytotoxicity toward BJ-TERT fibroblasts, dose response, cell-based, RAS-independent, luminescence (AID 1933); assay type: functional; settings: Homo sapiens
BJ [17] = test: cytotoxicity toward BJ-TERT-LT-ST fibroblasts, dose response, cell-based, RAS-independent, luminescence (AID 1935); assay type: functional; settings: Homo sapiens;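 also: BJ fibroblasts immortalized with TERT plus LT and ST oncogenes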
[18] = inhibitors of SNCA 5'UTR-driven reporter translation, confirmation, H4 neuroglioma cells, luminescence (AID 1988); assay type: functional, cell-based
[19] = cytotoxicity toward NIH3T3 fibroblasts, dose response, counter-screen, cell-based, ATP luminescence, mouse fibroblasts (AID 2010); assay type: functional;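 also: cells exposed to compound for about 90 hours before reading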

O=C(CN1CCCCCC1)N1c2ccccc2Sc2ccccc21
EC50 [1]: 1.68 µM (active)

c1ccc(Cn2c(NCc3ccco3)nc3ccccc32)cc1
EC50 [1]: 0.596 µM (active)

COc1cc(C2=NOC(C(=O)NCc3ccc(F)cc3)C2)cc(OC)c1OC (stereo not drawn)
IC50 [2]: > 80 µM (inactive)

Cc1ccc2oc(=O)c3cc(C(=O)NCCCN4C(C)CCCC4C)sc3c2c1 (stereo not drawn)
AC50 [3]: 100 µM (inactive)

COc1ccc(CC(=O)Nc2nc(-c3ccc(F)c(F)c3)cs2)cc1OC
AC50 (INS1): 6.65 µM (active) | IC50 [2]: 51.3 µM (inactive)

COc1ccc(CN(C(=O)c2snc(C(N)=O)c2N)C(CC(C)C)C(=O)NC2CCCCC2)cc1 (stereo not drawn)
EC50 [1]: 1.33 µM (active)

CCn1c(=N)c(C(=O)NC)cc2c(=O)n3cccc(C)c3nc21
AC50 [3]: 19.9 µM (active)

Cc1ccc(N(C)S(=O)(=O)c2ccc(-c3cnc(C4CC4)o3)cc2)cc1
IC50 [2]: > 80 µM (inactive)

O=C1CCCN2N=C(SCC(=O)Nc3cccc(C(F)(F)F)c3)SC2=N1
AC50 [4]: 5.46 µM (active) | AC50 [5]: 2.95 µM (active) | AC50 [6]: 4.37 µM (active)

Cc1ccc(C(O)(c2ccc(C)c(C)c2)C2CN3CCC2CC3)cc1C (stereo not drawn)
AC50 [7]: 10.1 µM (active)

Cc1cccc(NS(=O)(=O)c2ccc(-c3cnc(C4CC4)o3)cc2)c1
IC50 [2]: 67 µM (inactive)

COc1cc2nc(C3CCC3)n(NC(=O)C3CCCC(OC)C3)c(=O)c2cc1OC (stereo not drawn)
AC50 [8]: 6.2 µM (active)

CCOC(=O)c1[nH]c(C)c(C(=O)OCC(=O)NC(C)c2ccc(F)cc2)c1C (stereo not drawn)
IC50 [2]: > 80 µM (inactive)

CCN1CCN(c2nc(N)c([N+](=O)[O-])c(Nc3cccc(C)c3)n2)CC1
AC50 [3]: 12.4 µM (active)

CCOC(=O)C1(Cc2ccccc2C)CCCN(Cc2ccc(NC(C)=O)cc2)C1 (stereo not drawn)
EC50 [1]: 3.35 µM (active)

COc1ccc(OC)c(CN2CCCC(C(=O)c3sccc3C)C2)c1 (stereo not drawn)
EC50 [1]: 1.88 µM (active)

COc1cccc(-c2cc3nc(NCCCN(C)C)n(C)c(=O)c3s2)c1
AC50 [3]: 30.6 µM (active) | AC50 [9]: 7.04 µM (active)

C[C@@H]1CCCCO[C@H](CN(C)C(=O)Nc2ccc(C(F)(F)F)cc2)[C@@H](C)CN([C@H](C)CO)C(=O)c2cc(NC(=O)Nc3ccc(F)cc3)ccc2O1
AC50 [10]: 1.35 µM (active)

C[C@@H]1CCCCO[C@H](CN(C)Cc2ccc(C(F)(F)F)cc2)[C@@H](C)CN([C@H](C)CO)C(=O)c2cc(NS(=O)(=O)c3ccc(Cl)cc3)ccc2O1
AC50 [10]: 3.33 µM (active)

Cc1cc(C(=O)Nc2cccc3c2O[C@H](CN(C)Cc2ccc(C(=O)Nc4ccccc4N)cc2)[C@H](C)CN([C@H](C)CO)C3=O)n(C)n1
AC50 [10]: 3.15 µM (active)

C[C@H]1CN([C@@H](C)CO)C(=O)c2cc(NC(=O)Nc3ccccc3)ccc2O[C@H]1CN(C)Cc1ccc(C(=O)Nc2ccccc2N)cc1
AC50 [10]: 4.89 µM (active)

C[C@H](CO)N1C[C@H](C)[C@H](CN(C)C(=O)Nc2cccc3ccccc23)Oc2c(NC(=O)Nc3ccc4c(c3)OCO4)cccc2C1=O
AC50 [10]: 11.9 µM (active)

C[C@@H]1CCCCO[C@H](CN(C)Cc2ccc(Cl)c(Cl)c2)[C@@H](C)CN([C@H](C)CO)C(=O)c2cc(NC(=O)Nc3ccccc3)ccc2O1
AC50 [10]: 3.65 µM (active)

CCOC(=O)c1[nH]c(C=O)c(C(=O)OCC)c1C
IC50 [2]: > 80 µM (inactive)

Cc1cc(C(=O)Nc2ccc3c(c2)C(=O)N(C)[C@H]2CC[C@H](CC(=O)N[C@@H](C)c4ccccc4)O[C@H]2CO3)no1
AC50 [8]: 0.478 µM (active)

C/C=C/c1ccc([C@H]2[C@@H](CO)N[C@@H]2CN(C(=O)c2ccccc2F)C(C)C)cc1
AC50 [8]: 2.45 µM (active)

CN1C[C@H]2[C@@H](c3ccccc31)[C@@H](CO)N2C(=O)C1CCOCC1
AC50 [8]: < 0.195 µM (active)

C/C(=N\NC(=O)c1ccccc1Cl)c1ccccn1
EC50 (BJ [11]): 13.5 µM (active) | AC50 (INS1): 1.4 µM (active) | IC50 (Nonstructural protein 1): 11.1 µM (active) | EC50 [12]: 9.67 µM (active) | EC50 [13]: 17.5 µM (active) | EC50 [14]: 1.5 µM (active) | EC50 [15]: 6.44 µM (active) | EC50 (BJ [16]): 14.8 µM (active) | EC50 (BJ [17]): 12.2 µM (active) | EC50 [18]: 5.67 µM (active) | EC50 [19]: 5.56 µM (active)

COc1cc(OC)c(/C=C2\C(=O)Nc3ccccc32)c(OC)c1
IC50 [2]: 69.6 µM (inactive)

— ChEMBL document CHEMBL1201862, “PubChem BioAssay data set” (2004)
